Measurements taken from PubChem BioAssay (NCI).
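Step 1: Grow cells in 96-well plates. Step 2: Expose to compound for 48 hours at 5 concentrations. Step 3: Interpolate endpoints linearly; if unreached, use highest concentration. At the GI50, growth is halved. TGI is the concentration that stops growth completely.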

Tests used:
Experiment in all cases: NCI-60 cell line screen, 48 h
SF-539 CNS = test system: SF-539 CNS
EKVX NSCLC = test system: EKVX NSCLC
HS 578T breast = test system: HS 578T breast
TK-10 renal = test system: TK-10 renal
SK-MEL-2 melanoma = test system: SK-MEL-2 melanoma
PC-3 prostate = test system: PC-3 prostate
LOX IMVI melanoma = test system: LOX IMVI melanoma
HL-60(TB) leukemia = test system: HL-60(TB) leukemia
UACC-257 melanoma = test system: UACC-257 melanoma
ACHN renal = test system: ACHN renal

Structure (SMILES) | GI50 (SF-539 CNS) [µM] | TGI (SF-539 CNS) [µM] | GI50 (EKVX NSCLC) [µM] | TGI (EKVX NSCLC) [µM] | GI50 (HS 578T breast) [µM] | TGI (HS 578T breast) [µM] | GI50 (TK-10 renal) [µM] | TGI (TK-10 renal) [µM] | GI50 (SK-MEL-2 melanoma) [µM] | TGI (SK-MEL-2 melanoma) [µM] | GI50 (PC-3 prostate) [µM] | TGI (PC-3 prostate) [µM] | GI50 (LOX IMVI melanoma) [µM] | TGI (LOX IMVI melanoma) [µM] | GI50 (HL-60(TB) leukemia) [µM] | TGI (HL-60(TB) leukemia) [µM] | GI50 (UACC-257 melanoma) [µM] | TGI (UACC-257 melanoma) [µM] | GI50 (ACHN renal) [µM] | TGI (ACHN renal) [µM]
CN(C)c1cccc2[nH]c(-c3[nH]ncc3Nc3ccnc(N)n3)nc12 | < 0.0118 | 0.0608 | 0.0259 | 0.998 | < 0.0156 | 0.261 | 0.0399 | 1.01 | 0.021 | 0.0692 | 0.0147 | 0.276 | < 0.01 | 0.14 | < 0.0141 | 0.0666 | 0.0318 | 0.324 | 0.0165 | 0.679
Cc1cccc2c3c(sc12)C(c1ccc(Cl)cc1)C(C#N)=C(/N=C/c1ccc(Cl)cc1)O3 (centres undefined) | 0.298 | 1.26 | 0.565 | > 100 | 0.258 | 2.64 | 12.2 | 51.3 | 2.86 | 29.9 | 0.392 | > 100 | 0.651 | > 100 | 0.325 | 2.54 | > 100 | > 100 | 0.858 | > 100
CC(C)(C)Cn1c(N)nc2ccc(-c3[nH]c(C(C)(C)C)nc3-c3ccc(F)cc3)nc21 | 13.3 | 28.5 | 3.19 | 18.8 | 13.7 | 73 | 4.56 | 18.9 | 13.1 | 27.1 | 12.6 | > 62.5 | 12.8 | 27.5 | 19.9 | 81.4 | 11.2 | 23.9 | 1.04 | 16.7
O=C(Nc1ccccc1Cl)c1cnc2ccc(C3CCNCC3)cn12 | 4.94 | > 100 | 11.7 | > 100 | 0.292 | 2.92 | 1.92 | 12.2 | 42.3 | > 94 | 14.3 | > 100 | 2.07 | 17 | > 67.9 | > 100 | 16.2 | 37.1 | 1.02 | > 46.5
CCN(CC)c1ccc(/C=N/NC(=O)c2ccc(Nc3ccnc(C(F)(F)F)c3)cc2)c(O)c1 | 0.234 | 0.87 | 0.167 | 1.76 | 0.321 | 3.6 | 0.42 | > 100 | 0.718 | – | 0.434 | > 100 | 0.14 | 0.922 | 0.258 | 0.791 | 0.412 | > 31 | 0.142 | 2.56
CC1(C)OC2C(CO)OC(n3ccc(=O)[nH]c3=O)C2O1 (centres undefined) | – | > 100 | – | > 100 | – | > 100 | – | > 100 | – | > 100 | – | > 100 | – | > 100 | – | > 100 | – | > 100 | – | > 100
O=C(O)CC(Cc1ccc2c(c1)OCO2)C(=O)O (centres undefined) | – | > 100 | – | > 100 | – | > 100 | – | > 100 | – | > 100 | – | > 100 | – | > 100 | – | > 100 | – | > 100 | – | > 100
Cc1ccc(NC(=O)c2ccnc(C(F)(F)F)c2)cc1-c1cc(OCCO)nc(N2CCOCC2)c1 | 2.55 | 11.8 | 2.44 | 29.5 | 2.59 | 23.7 | 6.66 | > 100 | 0.192 | 3.44 | 3.24 | > 100 | 0.147 | 4.26 | 1.05 | 6.51 | 0.6 | 12.4 | 2.99 | 80.1
COc1ccc(C2=NNC(c3ccc(-c4ccc(OC)cc4[N+](=O)[O-])o3)C2)cc1 (centres undefined) | 10.1 | 23.1 | 18.4 | > 100 | 22.1 | 57.5 | 14.8 | 46.3 | > 100 | > 100 | 83.3 | > 100 | 41.9 | > 100 | 71.7 | > 100 | 38.4 | > 100 | 42.2 | > 100
S=C(Nc1ccccc1)c1ccccn1 | > 100 | > 100 | 42.9 | > 100 | > 100 | > 100 | > 100 | > 100 | > 100 | > 100 | 54.7 | > 100 | 28.2 | > 100 | 31.3 | > 100 | > 100 | > 100 | 50.6 | > 100
CC(=O)OCC(=O)[C@@]1(O)[C@H](C)C[C@H]2[C@@H]3C=C(C)C4=Cc5c(cnn5-c5ccc(F)cc5)C[C@]4(C)[C@H]3[C@@H](O)C[C@@]21C | 0.473 | 2.35 | 1.88 | 10.4 | 1.33 | 4.05 | 1.91 | 6.03 | 2.14 | 6.36 | 1.8 | 5.06 | 1.66 | 3.8 | 4.1 | 9.02 | 2.76 | 8.54 | 2.5 | 9.97
COC(=O)c1c2c(c(C)[n+]([O-])c1C)C(=O)C=C(NCc1ccc(Cl)cc1)C2=O | 0.733 | 1.98 | 0.783 | 2.39 | 1.77 | 6.5 | 2.95 | 8.2 | 1.05 | 2.73 | 0.289 | 3.17 | 0.053 | 1.6 | 0.324 | 1.55 | 0.234 | 0.868 | 0.233 | 1.91
